Tests used:
[1] = molecular target: T1, Human Whole Platelet Cyclooxygenase-1 (Homo sapiens, UniProt P23219); test: Human Whole Platelet Cyclooxygenase-1 assay (HWPX); type: cell-based; settings: for IC50: read-out: HWPX IC50 (parenthetical value)
T1 construct: from tissue; host or cells: human blood: isolated platelets (A4) or heparinised whole blood (A9)
How it was run: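 Washed platelets from healthy-donor ACD blood were pre-incubated with compound for 10 min, then stimulated with calcium ionophore A23187 (8.8 μM final) for 10 min. Reaction stopped with cold 6 mM EDTA; thromboxane in supernatants quantified with a commercial kit.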

[2] = molecular target: T2, human amnionic whole cell cyclooxygenase-2 (WISH cells) (Homo sapiens, UniProt P35354); test: IL-1β induced PGE2 production in WISH cells; type: cell-based; settings: for IC50: read-out: Wish IC50 (parenthetical value)
T2 construct: endogenous in cells; host or cells: human amnionic WISH cells, induced with IL-1beta
T2 sequence (P35354 18-604): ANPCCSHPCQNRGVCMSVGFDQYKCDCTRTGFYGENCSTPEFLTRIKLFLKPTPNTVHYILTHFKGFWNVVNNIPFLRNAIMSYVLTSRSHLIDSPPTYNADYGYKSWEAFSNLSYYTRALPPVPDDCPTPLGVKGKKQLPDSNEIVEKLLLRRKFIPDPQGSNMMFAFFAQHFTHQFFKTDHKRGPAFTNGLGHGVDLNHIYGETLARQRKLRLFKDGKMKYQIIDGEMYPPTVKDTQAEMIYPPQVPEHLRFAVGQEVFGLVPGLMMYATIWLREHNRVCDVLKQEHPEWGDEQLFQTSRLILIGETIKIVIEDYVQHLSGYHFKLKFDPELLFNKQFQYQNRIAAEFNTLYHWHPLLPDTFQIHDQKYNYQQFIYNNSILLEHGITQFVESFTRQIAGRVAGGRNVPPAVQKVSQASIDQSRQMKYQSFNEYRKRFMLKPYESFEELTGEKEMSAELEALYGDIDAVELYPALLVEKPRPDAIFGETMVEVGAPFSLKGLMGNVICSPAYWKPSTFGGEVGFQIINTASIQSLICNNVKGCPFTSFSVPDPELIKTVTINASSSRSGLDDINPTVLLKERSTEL
How it was run: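 Confluent (80%) WISH cells were stimulated with 5 ng/ml IL-1β in serum-free Neuman-Tytell medium, with or without test compound in DMSO (0.01% v/v). PGE2 in the culture medium was measured by EIA against standards prepared in the same medium, read by optical density.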

[3] = system: air pouch prostaglandin biosynthesis (Cox-2); test: Carrageenan induced air pouch prostaglandin biosynthesis model (CAP); type: in vivo, rat; settings: for CAP % Inhib. @ 3 mpk / inhibition in vivo at 3 mg/kg: rat, 3 mpk; for inhibition in vivo at 3 mg/kg: 4 h, read-out: CAP % Inhib. @ 3 mpk; for ED50: Rattus norvegicus
Protocol: To compare the mean responses of the treatment groups, analysis of variance was applied. Percent inhibition values were determined by comparing the individual treatment mean values to the mean of the control group. Linear regression was used to estimate IC50's/ED50's in appropriate assays.
Carrageenan induced air pouch prostaglandin biosynthesis model (CAP) Air pouches are formed in the backs of male Sprague Dawley rats by injecting 20 mL of sterile air on day 0. Three days later the pouch was reinflated with an additional 10 mL of sterile air. On day 7, 1 mL of saline containing 0.2 % lambda carrageenan (Sigma Chemical Co.) is injected into the pouch to induce the inflammatory reaction that is characterized by the release of prostaglandins. Test compounds are dosed at 0.1 to 10 mg/kg 30 minutes prior to carrageenan. Four hours after the carrageenan injection the pouch is lavaged and levels of prostaglandins are determined by enzyme immuno-assay using commercially available kits. […] Values for Cox-2 inhibition that are parenthetical indicate ED50 values.

[4] = molecular target: T3, recombinant human Cox-1 (r-hu Cox1) (Homo sapiens, UniProt P23219); test: Recombinant human PGHS-1 enzyme assay (RHUCX1); type: biochemical
T3 construct: made in house; host or cells: baculovirus/Sf9 insect cells (microsomes)
T3 sequence (P23219 24-599): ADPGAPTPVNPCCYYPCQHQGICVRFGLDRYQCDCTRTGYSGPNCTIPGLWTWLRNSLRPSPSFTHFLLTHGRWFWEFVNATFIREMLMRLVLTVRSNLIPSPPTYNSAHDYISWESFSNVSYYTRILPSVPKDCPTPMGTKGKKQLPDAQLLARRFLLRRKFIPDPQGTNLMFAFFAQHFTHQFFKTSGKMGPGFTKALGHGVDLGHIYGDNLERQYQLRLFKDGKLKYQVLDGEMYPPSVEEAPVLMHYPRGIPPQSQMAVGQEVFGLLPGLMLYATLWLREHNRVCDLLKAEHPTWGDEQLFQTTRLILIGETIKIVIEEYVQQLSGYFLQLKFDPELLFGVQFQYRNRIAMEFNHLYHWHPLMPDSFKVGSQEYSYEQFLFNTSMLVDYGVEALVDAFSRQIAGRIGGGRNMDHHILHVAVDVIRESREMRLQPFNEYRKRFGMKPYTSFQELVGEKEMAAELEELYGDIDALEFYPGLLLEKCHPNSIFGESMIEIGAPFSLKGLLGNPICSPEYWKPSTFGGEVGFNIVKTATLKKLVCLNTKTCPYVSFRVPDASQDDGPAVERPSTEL
How it was run: (§1)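 PGE2 formed with and without drug quantified by EIA against matrix-matched standards; percent inhibition relative to control mean, IC50 by linear regression.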

[5] = molecular target: T4, recombinant human Cox-2 (r-hu Cox-2) (Homo sapiens, UniProt P35354); test: Recombinant human PGHS-2 enzyme assay (RHUCX2); type: biochemical; settings: for IC50: read-out: RHUCX2 IC50 (parenthetical value)
T4 construct: made in house; host or cells: baculovirus/Sf9 insect cells (microsomes)
T4 sequence (P35354 18-604): T2 sequence (P35354 18-604)
How it was run: as §1

[6] = read-out: RHUCX1 % Inh. at Dose
[7] = 100 μM, read-out: RHUCX1 % Inh. at Dose
[8] = read-out: RHUCX2 % Inh. at Dose
[9] = 1 μM, read-out: RHUCX2 % Inh. at Dose

T1 sequence (P23219 24-599): as above

Row | Molecule | IC50 [2] | IC50 [1] | IC50 [5] | melting point | inhibition at 100 µM [4, 7] | inhibition in vivo at 3 mg/kg [3] | also measured
1 | CS(=O)(=O)c1ccc(-c2cnn(-c3ccc(F)c(F)c3)c(=O)c2-c2ccc(Cl)cc2)cc1 [Example 106, 2-(3,4-Difluorophenyl)-4-(4-chlorophenyl)-5-[4-(methylsulfonyl)phenyl]-3(2H)-pyridazinone] | 30 nM | 17500 nM | 135 nM | 187 to 188 °C | – | 47% | inhibition at 200 µM ([4]; 200 μM, read-out: RHUCX1 % Inh. at Dose): 19%
2 | NS(=O)(=O)c1ccc(-c2cnn(Cc3ccc(F)c(F)c3F)c(=O)c2-c2ccc(F)cc2)cc1 [Example 153, 2-(2,3,4-Trifluorobenzyl)-4-(4-fluorophenyl)-5-[4-(aminosulfonyl)phenyl]-3(2H)-pyridazinone] | 46 nM | 2950 nM | 62 nM | 218 to 220 °C | 54% | 51% | inhibition at 10 µM [4, 6]: 35%
3 | Cc1cc(-c2c(-c3ccc(S(C)(=O)=O)cc3)cnn(-c3ccc(F)cc3)c2=O)ccc1F [Example 245, 2-(4-Fluorophenyl)-4-(4-fluoro-3-methylphenyl)-5-[4-(methylsulfonyl)phenyl]-3(2H)-pyridazinone] | 46 nM | – | 1380 nM | 245 to 247 °C | 9% | 47% | –
4 | CC(C)CCc1c(-c2ccc(S(C)(=O)=O)cc2)cnn(-c2ccc(F)c(F)c2)c1=O [Example 256] | 28 nM | 4700 nM | 134 nM | 55 to 58 °C | 0% | 47% | –
5 | CC(C)CCOc1c(-c2ccc(S(C)(=O)=O)cc2)cnn(C(C)(C)C)c1=O [Example 330, 2-(tert-Butyl)-4-(3-methylbutoxy)-5-[4-(methylsulfonyl)phenyl]-3(2H)-pyridazinone] | 5 nM | 16700 nM | – | – | 15% | 4.5% | inhibition at 0.01 µM [5, 8]: 5%; inhibition at 0.03 µM ([5]; 0.03 μM, read-out: RHUCX2 % Inh. at Dose): 72%; inhibition at 1 µM [5, 9]: 85%
6 | CC(C)(C)COc1c(-c2ccc(S(C)(=O)=O)cc2)cnn(-c2ccc(F)c(F)c2)c1=O [Example 349] | 41 nM | – | 86 nM | 126 to 128 °C | 0% | 63% | inhibition at 100 µM ([1]; 100 μM, read-out: HWPX % Inhib. at Dose): 34%
7 | CC(C)=CCCOc1c(-c2ccc(S(C)(=O)=O)cc2)cnn(-c2ccc(F)c(F)c2)c1=O [Example 352, 2-(3,4-Difluorophenyl)-4-(4-methyl-3-penten-1-yloxy)-5-[4-(methylsulfonyl)phenyl]-5-3(2H)-pyridazinone] | – | 5500 nM | 154 nM | 88 to 90 °C | 0% | 89% | ED50 [3]: 5 mg/kg
8 | CC(C)CCOc1c(-c2ccc(S(N)(=O)=O)cc2)cnn(-c2cccc(Cl)c2)c1=O [Example 394, 2-(3-Chlorophenyl)-4-(3-methylbutoxy)-5-[4-(aminosulfonyl)phenyl]-3(2H)-pyridazinone] | 19 nM | – | – | 137 to 139 °C | 86% | 70% | inhibition at 10 µM [4, 6]: 38%; inhibition at 0.01 µM [5, 8]: 20%; inhibition at 0.1 µM ([5]; 0.1 μM, read-out: RHUCX2 % Inh. at Dose): 64%; inhibition at 1 µM [5, 9]: 94%
9 | CC(C)(O)COc1c(-c2ccc(S(C)(=O)=O)cc2)cnn(-c2ccc(F)c(F)c2)c1=O [Example 452, 2-(3,4-Difluorophenyl)-4-(2-hydroxy-2-methyl-1-propoxy)-5-[4-(methylsulfonyl)phenyl]-3(2H)-pyrridazinone] | – | – | – | – | – | – | RHUCX1 % Inh. at Dose (μM) ([4]; 100 μM): 14 @ 100%; RHUCX2 % Inh. at Dose (μM) ([5]; 1 μM): 15 @ 1%; Wish % Inhib. at Dose (μM) ([2]; 0.1 μM): 1 @ 0.1%; Wish % Inhib. at Dose (μM) ([2]; 1 μM): 56 @ 1%; CAP % Inhib. @ 3 mpk [3]: 71%

More lines, in order of falling IC50 [2], values ahead:

Row | IC50 [2] | IC50 [1] | IC50 [5] | melting point | inhibition at 100 µM [4, 7] | Molecule | inhibition in vivo at 3 mg/kg [3] | also measured
10 | 23 nM | 2180 nM | – | – | – | 2-(4-Fluorophenyl)-4-(4-fluorophenoxy)-5-[4-(aminosulfonyl)phenyl]-3(2H)-pyridazinone [Example 385] | – | CAP % Inhib. @ 3 mpk [3]: 65%
11 | 23 nM | – | 1 nM | 166 to 169 °C | 5% | CC(C)COc1c(-c2ccc(S(C)(=O)=O)cc2)cnn(-c2cccc(Cl)c2)c1=O [Example 335, 2-(3-Chlorophenyl)-4-(2-methylpropoxy)-5-[4-(methylsulfonyl)phenyl]-3(2H)-pyridazinone] | 45% | –
12 | 20 nM | – | 54 nM | – | 0% | CS(=O)(=O)c1ccc(-c2cnn(-c3ccc(F)c(Cl)c3)c(=O)c2C2CCCCC2)cc1 [Example 246, 2-(3-Chloro-4-fluorophenyl)-4-cyclohexyl-5-[4-(methylsulfonl)phenyl]-3(2H)-pyridazinone] | 48% | –
13 | 18 nM | – | 77 nM | 174 to 177 °C | 0% | CS(=O)(=O)c1ccc(-c2cnn(-c3cccc(Cl)c3)c(=O)c2Cc2ccccc2)cc1 [Example 367, 2-(3-Chlorophenyl)-4-benzyl-5-[4-(methylsulfonyl)phenyl]-3(2H)-pyridazinone] | 48% | inhibition at 0.3 µM ([1]; 0.3 μM, read-out: HWPX % Inhib. at Dose): 8%; inhibition at 1 µM ([1]; 1 μM, read-out: HWPX % Inhib. at Dose): 50%
14 | 7 nM | – | 76 nM | 191 to 194 °C | 62% | NS(=O)(=O)c1ccc(-c2cnn(CC=C(F)F)c(=O)c2-c2ccc(F)cc2)cc1 [Example 143, 2-(3,3-Difluoro-2-propenyl)-4-(4-fluorophenyl)-5-[4-(aminosulfonyl)phenyl]-3(2H)-pyridazinone] | 59% | inhibition at 10 µM [4, 6]: 43%
15 | 5 nM | – | 80 nM | – | 13% | CS(=O)(=O)c1ccc(-c2cnn(-c3ccc(F)c(Cl)c3)c(=O)c2Cc2ccccc2)cc1 [Example 248, 2-(3-Chloro-4-fluorophenyl)-4-benzyl-5-[4-(methylsulfonyl)phenyl]-3(2H)-pyridazinone] | 49% | inhibition at 10 µM ([1]; 10 μM, read-out: HWPX % Inhib. at Dose): 17%; inhibition at 30 µM ([1]; 30 μM, read-out: HWPX % Inhib. at Dose): 82%
16 | 2 nM | 1620 nM | 30 nM | 60 to 65 °C | 0% | CC(C)CCc1c(-c2ccc(S(C)(=O)=O)cc2)cnn(-c2cccc(Cl)c2)c1=O [Example 366, 2-(3-Chloropenyl)-4-(3-methylbutyl)-5-[4-(methysulfonyl)phenyl]-3(2H)-pydazinone] | 63% | ED50 [3]: 1.5 mg/kg
17 | 1 nM | – | – | – | – | 2-(3-Methyl-2-butenyl)-4-(4-fluorophenyl)-5-[3-fluoro-4-(aminosulfonyl)phenyl]-3(2H)-pyridazinone [Example 123] | – | HWPX % Inhib. at Dose (μM) ([1]; 0.1 μM): 29 @ .1%; HWPX % Inhib. at Dose (μM) ([1]; 1 μM): 90 @ 1%; CAP % Inhib. @ 3 mpk [3]: 23%
